Reference: patent US20240262804A1, “NITROGEN-CONTAINING HETEROCYCLIC KETONES, PREPARATION METHODS AND MEDICINAL USES THEREOF” (Hansoh Bio LLC, priority 2021, published 2024)
Marks after values point to notes of the source that are not given here.

Columns and labels:
[1] = tested on: isolated rat ventricular myocytes; assay: Cardiomyocyte contractility assay (sarcomere shortening, IonOptix); format: cell-based; settings: for Ratio of % FS 5 uM/15 uM: 5 uM versus 15 uM
Protocol: The effects of compounds on sarcomere shortening in isolated rat ventricular myocytes were assessed using the IonOptix apparatus.
Myocytes were placed in a chamber mounted on the stage of an inverted microscope and continuously superfused with oxygenated Tyrode solution containing (in millimolar): 121 NaCl, 5 KCl, 2.8 NaCH3CO2, MgCl2·6H2O, Glucose, NaHCO3, Na2HPO4. 7H2O, and 1.5 mM CaCl2). Solution was preheated at 36±1° C. and electrical-field stimulated at 1 Hz by 2 platinum electrodes connected to a Myopacer field stimulator (IonOptix Corporation) with 4 ms square-wave bipolar pulses (10 V). Cells were illuminated by the microscope light. The cell image was collected by a x40 ultraviolet epifluorescence objective, diverted to the microscope side port, where the cell image was recorded by a charge coupled device (CCD) camera (MyoCam, IonOptix Corporation), converting optical brightness (pixels) into electrical signals (voltage). The MyoCam configuration allowed acquisition of up to 240 images per second (240 Hz frame rate). Contractile properties of the myocytes were analyzed in real time by a video detector and a personal computer-based data acquisition system (Ionwizard 6.0, IonOptix Corporation). Only myocytes with clear striations, quiescent prior to pacing with a resting sarcomere length greater or equal to 1.75 μm were used, since this is presumed to represent the lower limit for healthy cells.
Sarcomere shortening was monitored in control solution (predrug) until stable recordings were obtained (baseline period). To determine the response to compounds, myocytes were first superfused for 60 seconds with Tyrode's buffer followed by at least a 5 minute—(or until steady state was reached, up to 10 min) superfusion of compound. Each cell was subjected to 2 concentrations (5 and 15 uM or 5 and 10 uM) of test compounds. For some cells, a washout period was performed after the last concentration. Duration of the washout period was variable, resulting in variability in the washout data. In separate cells, a single concentration of isoproterenol (100 nM) was applied. Data were continuously recorded using the IonOptix software. Contractility data were analyzed using Ionwizard software (IonOptix). For each cell, 10-15 contractility transients at baseline and after treatment were averaged and compared.

[2] = Pharmacokinetic profiles in male SD rats (IV and PO); format: in vivo, rat; settings: IV 1 mg/kg, PO 5 mg/kg, route for this parameter not given; for clearance / half-life / Vd: rat, plasma; for Vd: read-out: VSS
Protocol: Pharmacokinetic profile of compounds were determined by IV (1 mg/Kg) and PO (5 mg/Kg) administrations in male SD rats. Compounds were administrated with free base and formulated in 5% DMAC+25% PEG-400+70%(30% 2-HP-β-CD in water). The compounds were dosed at 1 mg/kg for intravenous and 5 mg/kg oral administration. Blood samples were collected at 0, 0.083, 0.25, 0.5, 1, 2, 4, 8 and 24 hours post dose, serial bleeding for plasma for the IV group. Blood samples were collected at 0, 0.25, 0.5, 1, 2, 4, 6, 8 and 24 hours post dose, serial bleeding for the PO group. Approximately 150 μL whole blood/time point were collected in K2EDTA tube via jugular vein. Blood sample was put on ice and centrifuged at 2000 g for 5 min to obtain plasma sample within 15 minutes. PK parameters were estimated by non-compartmental model using WinNonlin 8.2.

bovine cardiac myosin = bovine cardiac myosin (Bos taurus (Bovine), UniProt Q9BE39); assay: Myosin inhibitory potency: PK/LDH-coupled ATPase assay on bovine skinned cardiac myofibrils; format: biochemical; settings: pCa=6.25, 50 μM ATP, 25° C., read-out: myosin inhibition activity IC50
Method in brief: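 Bovine left-ventricle skinned myofibrils (1 mg/mL) in PM12 buffer pH 6.8 at pCa 6.25, 50 μM ATP, PK/LDH-coupled NADH depletion read at 340 nm, 25 °C.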

[3] = target: bovine skinned cardiac myofibrils (myosin) (Bos taurus (Bovine), UniProt Q9BE39); assay: Myosin inhibitory potency comparison: ATPase assay, cardiac myofibrils; format: biochemical; settings: pCa=6.25
Protocol: (§1) In our experiments, bovine skinned cardiac myofibrils were isolated from the frozen bovine left ventricle as myosin's source in the ATPase assay. The calcium concentration that achieves a 50% (pCa50 or pCa=6.25) activation of the myofibril system was chosen as the final condition for assessing the activation activity according to the literature (DOI: 10.1074/jbc.M117.776815). Myofibrils ATPase activity was measured in a buffered solution containing 12 mM PIPES (piperazine-N, N′-bis(2-ethane sulfonic acid) and 2 mM magnesium chloride at pH 6.8 (PM12 buffer). Final assay conditions were 1 mg/mL of bovine cardiac myofibrils, 1:20 of stock PK/LDH (Sigma-Aldrich, Cat No. P0294-5X5ML), 50 μM ATP, 1 mM DTT (dithiothreitol), 0.75 mM NADH, 1.5 mM PEP at pCa50 (pCa=6.25). Compounds were dissolved in DMSO (dimethyl sulfoxide). Serial dilution of compounds was created such that the final desired concentration of compound would be achieved in a volume of 150 μL with a fixed DMSO concentration of 2% (v/v). 75 μL of a solution containing bovine cardiac myofibrils, PK/LDH, and calcium were added to a 96 well plate for a 7 point dose-response. In some circumstances, 10 point-response was used to repeat the ATPase assays on compounds of interest. Compounds were added to the myofibrils solution and incubated for 5 minutes. The enzymatic reaction was started with the addition of 75 μL of a solution containing ATP, PEP, NADH, compounds, and calcium. The ATPase activity was measured by reading absorbance at 340 nm in a PerkinElmer Victor Nivo plate reader at 25° C. in kinetic mode for 15 minutes using clear bottom plates. The slopes of the absorbance changes as a function of time for the first 10 minutes were normalized to slopes on the control wells containing all reagents, including DMSO, but without compounds. This normalized rate was then plotted as a function of small molecule concentration in GraphPad prism 9. The data were fitted to a four-parameter fit, and IC50 was calculated using Graphpad Prism 9.
(§2) Bovine skinned cardiac myofibrils were isolated from the frozen bovine left ventricle, and rabbit skinned skeletal myofibrils were isolated from the frozen rabbit Psoas major and minor muscles as myosin's source in the ATPase assay. The calcium concentration that achieves a 50% activation of the myofibril system (pCa=6.25 for bovine cardiac myofibrils and pCa=6 for rabbit skeletal myofibrils) was chosen as the final condition for assessing the activation activity according to the literature (DOI:10.1074/jbc.M117.776815). Rest of ATPase assay conditions are the same as illustrated in experiment 1.

[4] = tested on: rabbit skinned skeletal myofibrils (myosin); assay: Myosin inhibitory potency comparison: ATPase assay, skeletal myofibrils; format: biochemical; settings: for Skeleta/Cardiac: ratio of skeletal IC50 to cardiac IC50
Protocol: as §1, §2

[5] = tested on: heart function (cardiac contractility); assay: Echocardiography assessment of acute pharmacodynamic effect in rat cardiac contractility; format: in vivo; settings: Spraw-Dawley rats
Protocol: The Effect of Compounds on Heart Function was Determined by Echocardiography in Spraw-Dawley rats. Rats were under light anesthesia with 1-2% isoflurane. Compounds were dosed via oral gavage as single PO. Baseline heart functions were measured 1 day before dosing. The effect of compounds on heart function were measured at 1, 3, 6, and 24 hours post dosing. About 250 μL of whole blood was obtained at ˜1, 3, 6 and 24 hours post-dose via tail vein, immediately after the Echocardiography procedure. Blood was placed into a plasma separator tube containing K2 EDTA and kept on wet ice until processing. Blood samples were centrifuged at 2,000 g (4,400 rpm, Eppendorf 5417R) for 10 minutes at 4° C. Plasma samples were then transferred into micro-tubes and stored at −80° C. for future LC/MS analysis. The data were plotted as reduction of Fractional shortening vs plasma compound concentration. Therapeutic windows were determined as IC50/IC10 according to the literature (DOI: https://doi.org/10.1021/acs.jmedchem.1c01290).

[6] = rat ventricular myocytes, paced at 1 Hz

Chain of bovine cardiac myosin (Q9BE39 whole entry): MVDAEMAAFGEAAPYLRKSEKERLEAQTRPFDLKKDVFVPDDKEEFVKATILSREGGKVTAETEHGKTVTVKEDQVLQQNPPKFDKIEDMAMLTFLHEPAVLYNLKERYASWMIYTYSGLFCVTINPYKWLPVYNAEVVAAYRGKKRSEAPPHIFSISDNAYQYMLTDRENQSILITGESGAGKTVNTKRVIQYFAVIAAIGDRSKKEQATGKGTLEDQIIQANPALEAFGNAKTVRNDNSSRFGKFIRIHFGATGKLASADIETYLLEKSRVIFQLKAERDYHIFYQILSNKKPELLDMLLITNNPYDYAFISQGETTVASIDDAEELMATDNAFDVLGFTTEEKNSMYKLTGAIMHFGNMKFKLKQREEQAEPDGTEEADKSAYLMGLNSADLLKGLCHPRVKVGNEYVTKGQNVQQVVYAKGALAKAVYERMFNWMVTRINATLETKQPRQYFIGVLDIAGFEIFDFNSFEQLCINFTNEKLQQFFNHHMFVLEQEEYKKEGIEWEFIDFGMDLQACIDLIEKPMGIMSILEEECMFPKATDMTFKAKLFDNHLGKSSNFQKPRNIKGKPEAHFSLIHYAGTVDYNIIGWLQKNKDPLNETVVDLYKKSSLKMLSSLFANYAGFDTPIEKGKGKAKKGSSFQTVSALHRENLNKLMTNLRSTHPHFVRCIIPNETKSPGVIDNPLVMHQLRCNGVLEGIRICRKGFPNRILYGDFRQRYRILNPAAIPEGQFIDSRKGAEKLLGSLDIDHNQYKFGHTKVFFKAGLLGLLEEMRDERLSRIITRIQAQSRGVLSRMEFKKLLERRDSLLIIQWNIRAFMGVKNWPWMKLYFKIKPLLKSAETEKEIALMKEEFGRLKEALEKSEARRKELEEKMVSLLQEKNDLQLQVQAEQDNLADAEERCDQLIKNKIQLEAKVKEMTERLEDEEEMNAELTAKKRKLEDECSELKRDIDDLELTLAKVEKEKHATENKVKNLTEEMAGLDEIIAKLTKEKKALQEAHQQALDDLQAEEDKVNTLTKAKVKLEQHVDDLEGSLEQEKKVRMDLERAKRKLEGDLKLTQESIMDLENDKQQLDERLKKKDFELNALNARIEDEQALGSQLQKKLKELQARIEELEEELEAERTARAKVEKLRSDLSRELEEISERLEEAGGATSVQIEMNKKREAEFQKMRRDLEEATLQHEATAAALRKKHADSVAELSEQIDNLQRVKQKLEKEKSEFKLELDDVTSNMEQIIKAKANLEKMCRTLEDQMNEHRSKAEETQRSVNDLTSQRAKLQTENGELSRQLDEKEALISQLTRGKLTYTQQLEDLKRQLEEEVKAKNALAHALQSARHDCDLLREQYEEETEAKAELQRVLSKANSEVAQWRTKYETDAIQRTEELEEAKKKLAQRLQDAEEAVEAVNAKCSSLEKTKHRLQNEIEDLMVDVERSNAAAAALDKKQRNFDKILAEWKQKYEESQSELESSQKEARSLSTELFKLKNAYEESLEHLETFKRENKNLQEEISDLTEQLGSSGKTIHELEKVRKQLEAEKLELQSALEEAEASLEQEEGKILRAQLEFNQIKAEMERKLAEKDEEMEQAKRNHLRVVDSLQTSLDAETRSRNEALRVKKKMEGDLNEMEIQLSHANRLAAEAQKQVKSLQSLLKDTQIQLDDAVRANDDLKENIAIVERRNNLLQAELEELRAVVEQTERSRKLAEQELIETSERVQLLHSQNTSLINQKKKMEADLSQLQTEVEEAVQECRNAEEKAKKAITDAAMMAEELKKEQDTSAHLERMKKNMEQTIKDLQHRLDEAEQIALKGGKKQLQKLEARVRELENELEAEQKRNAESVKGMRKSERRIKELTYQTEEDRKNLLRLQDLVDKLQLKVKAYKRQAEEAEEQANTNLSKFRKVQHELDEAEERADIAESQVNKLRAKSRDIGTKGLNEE
Chain of bovine cardiac myosin (P85100 whole entry partner): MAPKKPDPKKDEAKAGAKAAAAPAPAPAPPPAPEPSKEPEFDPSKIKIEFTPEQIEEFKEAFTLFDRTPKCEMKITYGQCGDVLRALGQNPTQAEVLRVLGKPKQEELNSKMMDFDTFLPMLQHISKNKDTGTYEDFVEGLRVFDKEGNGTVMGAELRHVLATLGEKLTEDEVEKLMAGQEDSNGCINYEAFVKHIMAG
Chain of bovine cardiac myosin (Q3SZE5 whole entry partner): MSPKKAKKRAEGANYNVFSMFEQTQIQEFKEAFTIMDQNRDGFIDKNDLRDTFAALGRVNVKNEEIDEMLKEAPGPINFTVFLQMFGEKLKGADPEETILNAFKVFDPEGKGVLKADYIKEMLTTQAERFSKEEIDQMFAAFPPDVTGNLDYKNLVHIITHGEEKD
Chain of bovine skinned cardiac myofibrils (myosin) (Q9BE39 whole entry): as the sequence (Q9BE39 whole entry) above
Chain of bovine skinned cardiac myofibrils (myosin) (P85100 whole entry partner): as the sequence (P85100 whole entry partner) above
Chain of bovine skinned cardiac myofibrils (myosin) (Q3SZE5 whole entry partner): as the sequence (Q3SZE5 whole entry partner) above

With `Cc1cc([C@H](C)Nc2nc(=O)n(C3CCOCC3)c(=O)[nH]2)ccc1F` [Example 156] the “Ratio of % FS 5 uM/15 uM” value [1] was 2.4, the “% FS (% reduction from baseline) at 5 uM” value [1, 6] was 61.5 +/− 5.2% and the “% FS (% reduction from baseline) at 15uM” value [1, 6] was 26.1 +/− 4%. For the same compound, the DNAUC [2] was 5052.2 ng·h/mL, the clearance [2] was 3.17 mL/min/kg and the half-life [2] was 5.47 h. It also gave a Vd [2] of 0.97 L/kg and an IC50 (bovine cardiac myosin) of 1130 nM.

For `CC(C)n1c(=O)nc(N[C@@H](C)C2CCCCC2)[nH]c1=O` [Example 45], the IC50 [3] was 7580 nM, the Skeleta/Cardiac [4] was 5.36 and the IC50 (bovine cardiac myosin) was 2800 nM.

With `C[C@H](Nc1nc(=O)n(C2CCOCC2)c(=O)[nH]1)c1cc(F)cc(Cl)c1` [Example 172] the “Ratio of % FS 5 uM/15 uM” value [1] was 2.2, the “% FS (% reduction from baseline) at 5 uM” value [1, 6] was 63.6 +/− 3.3% and the “% FS (% reduction from baseline) at 15uM” value [1, 6] was 28.9 +/− 8.7%. The DNAUC [2] was 7631.0 ng·h/mL, the clearance [2] was 2.5 mL/min/kg and the half-life [2] was 3.95 h. The Vd [2] was 0.57 L/kg and the IC50 (bovine cardiac myosin) was 470 nM.

With `C[C@H](Nc1nc(=O)n(C2CCOCC2)c(=O)[nH]1)c1ccc(F)cc1F` [Example 10] the “Ratio of % FS 5 uM/15 uM” value [1] was 1.2, the “% FS (% reduction from baseline) at 5 uM” value [1, 6] was 51 +/− 6% and the “% FS (% reduction from baseline) at 15uM” value [1, 6] was 41.5 +/− 6.3%. The IC50 [3] was 1500 nM, the DNAUC [2] was 1724.7 ng·h/mL and the clearance [2] was 9.17 mL/min/kg. For the same compound, the half-life [2] was 4.51 h, the Vd [2] was 1.78 L/kg and the “cardiac-skeletal myosin selectivity (in words)” value [4] was “better cardiac-skeletal myosin selectivity”. For the same compound, the “potency in inhibiting fast skeletal myofibril activity (in words)” value ([4]; compared with cardiac myofibrils) was “way less potent”, the Skeleta/Cardiac [4] was 29.01 and the “effect on heart contractility at 20 mpk (FIG. 2)” value ([5]; single PO, 20 mpk) was “do not further inhibit heart contractility at 20 mpk”. The “effect on heart contractility, dose dependence (FIG. 2)” value ([5]; single PO, up to 10 mpk) was “dose dependent under 10 mpk”, the “therapeutic window, plasma exposure vs fractional shortening (in words)” value ([5]; therapeutic window as IC50/IC10) was “superior therapeutic windows” and the IC50 (bovine cardiac myosin) was 1840 nM.

For `Cc1ccc([C@H](C)Nc2nc(=O)n(C3CCOCC3)c(=O)[nH]2)c(C)c1` [Example 168], the “Ratio of % FS 5 uM/15 uM” value [1] was 2.2, the “% FS (% reduction from baseline) at 5 uM” value [1, 6] was 54.3 +/− 9.3% and the “% FS (% reduction from baseline) at 15uM” value [1, 6] was 24.3 +/− 8.5%. For the same compound, the DNAUC [2] was 13412.2 ng·h/mL, the clearance [2] was 1.33 mL/min/kg and the half-life [2] was 3.89 h. For the same compound, the Vd [2] was 0.32 L/kg and the IC50 (bovine cardiac myosin) was 1700 nM.

For `C[C@H](Nc1nc(=O)n(C2CCOCC2)c(=O)[nH]1)c1ccc(F)cc1Cl` [Example 162], the “Ratio of % FS 5 uM/15 uM” value [1] was 1.9, the “% FS (% reduction from baseline) at 5 uM” value [1, 6] was 60.8 +/− 12.7% and the “% FS (% reduction from baseline) at 15uM” value [1, 6] was 32.2 +/− 5.3%. For the same compound, the DNAUC [2] was 4195.1 ng·h/mL, the clearance [2] was 4.17 mL/min/kg and the half-life [2] was 3.74 h. The Vd [2] was 0.97 L/kg.

With `C[C@H](Nc1nc(=O)n(C2CCOCC2)c(=O)[nH]1)c1ccc(OC(F)(F)F)cc1` [Example 152] the “Ratio of % FS 5 uM/15 uM” value [1] was 2.4, the “% FS (% reduction from baseline) at 5 uM” value [1, 6] was 62.9 +/− 6.2% and the “% FS (% reduction from baseline) at 15uM” value [1, 6] was 26.7 +/− 6.4%. The IC50 [3] was 1790 nM, the Skeleta/Cardiac [4] was 2.39 and the IC50 (bovine cardiac myosin) was 1210 nM.

In the case of `Cc1cccc([C@H](C)Nc2nc(=O)n(C3CCOCC3)c(=O)[nH]2)c1` [Example 4], the “Ratio of % FS 5 uM/10 uM” value ([1]; 5 uM versus 10 uM (cell marked *)) is reported as 1.7*, the “% FS (% reduction from baseline) at 5 uM” value [1, 6] is reported as 71.2 +/− 7.6% and the “% FS (% reduction from baseline) at 10 uM” value ([1]; 10 uM (cell marked *), rat ventricular myocytes, paced at 1 Hz) is reported as 42.4 +/− 4.2* %. It also gave an IC50 [3] of 660 nM, a DNAUC [2] of 2299.6 ng·h/mL and a clearance [2] of 5.5 mL/min/kg. For the same compound, the half-life [2] was 3.35 h and the Vd [2] was 1.17 L/kg.
